Common to all, as to type: ADME
Common to all, as to parameters: scale not given: the % may be the effect or the level left

Data set [1] addresses T1, CYP2B6 (Homo sapiens, UniProt P20813).
T1 sequence (P20813 whole entry): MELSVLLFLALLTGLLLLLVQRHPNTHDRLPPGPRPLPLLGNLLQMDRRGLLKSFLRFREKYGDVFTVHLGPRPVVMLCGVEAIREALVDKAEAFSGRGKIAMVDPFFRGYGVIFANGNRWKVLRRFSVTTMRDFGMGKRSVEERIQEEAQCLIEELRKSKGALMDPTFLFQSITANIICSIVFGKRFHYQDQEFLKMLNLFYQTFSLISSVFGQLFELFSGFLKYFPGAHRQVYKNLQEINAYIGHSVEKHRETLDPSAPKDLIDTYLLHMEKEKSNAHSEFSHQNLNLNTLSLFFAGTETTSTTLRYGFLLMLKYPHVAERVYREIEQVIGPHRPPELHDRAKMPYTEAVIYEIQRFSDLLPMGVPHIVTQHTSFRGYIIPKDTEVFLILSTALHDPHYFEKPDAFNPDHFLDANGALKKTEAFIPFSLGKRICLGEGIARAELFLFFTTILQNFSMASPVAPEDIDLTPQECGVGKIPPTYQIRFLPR
Briefly: Inhibition of CYP2B6 in human liver microsomes assessed as enzyme-mediated metabolite formation at 30 uM using bupropion as substrate incubated for 5 mins followed by NADPH addition measured after 30 mins by LC-MS/MS analysis relative to control. As to conditions: probe bupropion, read-out: Activity.

The target of another data set is T2, CYP1A2 (Homo sapiens, UniProt P05177).
T2 sequence (P05177 whole entry): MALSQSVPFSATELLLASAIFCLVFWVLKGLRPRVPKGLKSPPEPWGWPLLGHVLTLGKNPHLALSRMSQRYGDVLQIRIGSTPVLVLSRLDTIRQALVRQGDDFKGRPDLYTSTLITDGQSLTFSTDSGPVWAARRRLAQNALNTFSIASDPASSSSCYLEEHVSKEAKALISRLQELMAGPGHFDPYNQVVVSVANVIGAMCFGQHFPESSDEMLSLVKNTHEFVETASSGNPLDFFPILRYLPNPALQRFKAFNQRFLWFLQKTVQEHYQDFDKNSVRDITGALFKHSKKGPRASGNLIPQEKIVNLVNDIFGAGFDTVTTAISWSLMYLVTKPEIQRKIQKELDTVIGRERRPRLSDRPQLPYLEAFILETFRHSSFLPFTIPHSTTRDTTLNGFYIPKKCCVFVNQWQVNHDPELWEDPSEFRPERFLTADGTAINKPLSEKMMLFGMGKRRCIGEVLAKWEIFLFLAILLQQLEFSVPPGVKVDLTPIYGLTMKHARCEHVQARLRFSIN
In words: Inhibition of CYP1A2 in human liver microsomes assessed as enzyme-mediated metabolite formation at 30 uM using phenacetin as substrate incubated for 5 mins followed by NADPH addition measured after 30 mins by LC-MS/MS analysis relative to control. As to conditions: probe phenacetin, read-out: Activity. For orientation: Microsomes from liver hold many membrane-bound enzymes, among them those of drug oxidation.

The target in another data set is T3, CYP2C8 (Homo sapiens, UniProt P10632).
T3 sequence (P10632 whole entry): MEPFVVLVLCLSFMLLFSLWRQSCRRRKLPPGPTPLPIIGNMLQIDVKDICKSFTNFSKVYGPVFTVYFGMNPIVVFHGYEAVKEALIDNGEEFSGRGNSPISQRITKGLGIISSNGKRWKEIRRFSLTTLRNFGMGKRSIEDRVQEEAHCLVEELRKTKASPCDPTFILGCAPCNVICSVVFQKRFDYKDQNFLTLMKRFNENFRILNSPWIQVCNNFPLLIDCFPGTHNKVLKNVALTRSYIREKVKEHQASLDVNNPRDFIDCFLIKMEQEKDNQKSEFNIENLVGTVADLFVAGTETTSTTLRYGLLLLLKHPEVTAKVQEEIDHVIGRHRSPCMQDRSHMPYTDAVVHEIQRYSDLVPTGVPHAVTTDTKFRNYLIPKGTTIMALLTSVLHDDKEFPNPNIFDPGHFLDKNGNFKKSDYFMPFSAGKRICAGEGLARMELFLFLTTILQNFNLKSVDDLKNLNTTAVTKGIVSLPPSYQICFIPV
In words: Inhibition of CYP2C8 in human liver microsomes assessed as enzyme-mediated metabolite formation at 3 uM using paclitaxel as substrate incubated for 5 mins followed by NADPH addition measured after 30 mins by LC-MS/MS analysis relative to control. As to conditions: probe paclitaxel, read-out: Activity.

The target in data set [2] is T1, CYP2B6. In words: Inhibition of CYP2B6 in human liver microsomes assessed as enzyme-mediated metabolite formation at 3 uM using bupropion as substrate preincubated for 20 mins followed by substrate addition measured after 30 mins in presence of NADPH by LC-MS/MS analysis relative to control. As to conditions: probe bupropion, read-out: Activity.
Data set [3] has as its target T4, CYP2C19 (Homo sapiens, UniProt P33261). Briefly: Inhibition of CYP2C19 in human liver microsomes assessed as enzyme-mediated metabolite formation at 3 uM using (S)-mephenytoin as substrate incubated for 5 mins followed by NADPH addition measured after 30 mins by LC-MS/MS analysis relative to control. As to conditions: probe (S)-mephenytoin, read-out: Activity.
Data set [4] deals with T1, CYP2B6. In words: Inhibition of CYP2B6 in human liver microsomes assessed as enzyme-mediated metabolite formation at 0.3 uM using bupropion as substrate preincubated for 20 mins followed by substrate addition measured after 30 mins in presence of NADPH by LC-MS/MS analysis relative to control. As to conditions: probe bupropion, read-out: Activity.
Data set [5] concerns the target T5, CYP3A4 (Homo sapiens, UniProt P08684). In words: Inhibition of CYP3A4 in human liver microsomes assessed as enzyme-mediated metabolite formation at 30 uM using midazolam as substrate preincubated for 20 mins followed by substrate addition measured after 30 mins in presence of NADPH by LC-MS/MS analysis relative to control. As to conditions: probe midazolam, read-out: Activity.

In data set [6] the target is T4, CYP2C19. In words: Inhibition of CYP2C19 in human liver microsomes assessed as enzyme-mediated metabolite formation at 0.3 uM using (S)-mephenytoin as substrate incubated for 5 mins followed by NADPH addition measured after 30 mins by LC-MS/MS analysis relative to control. The conditions noted are these: probe (S)-mephenytoin, read-out: Activity.
In data set [7] the target is T5, CYP3A4. In words: Inhibition of CYP3A4 in human liver microsomes assessed as enzyme-mediated metabolite formation at 1 uM using midazolam as substrate incubated for 5 mins followed by NADPH addition measured after 30 mins by LC-MS/MS analysis relative to control. As to conditions: probe midazolam, read-out: Activity.
Data set [8] addresses T4, CYP2C19. Briefly: Inhibition of CYP2C19 in human liver microsomes assessed as enzyme-mediated metabolite formation at 1 uM using (S)-mephenytoin as substrate incubated for 5 mins followed by NADPH addition measured after 30 mins by LC-MS/MS analysis relative to control. The conditions noted are these: probe (S)-mephenytoin, read-out: Activity.
Data set [9] deals with T6, CYP2D6 (Homo sapiens, UniProt P10635). In words: Inhibition of CYP2D6 in human liver microsomes assessed as enzyme-mediated metabolite formation at 1 uM using dextromethorphan as substrate preincubated for 20 mins followed by substrate addition measured after 30 mins in presence of NADPH by LC-MS/MS analysis relative to control. As to conditions: probe dextromethorphan, read-out: Activity.

Data set [10] deals with T6, CYP2D6. In words: Inhibition of CYP2D6 in human liver microsomes assessed as enzyme-mediated metabolite formation at 0.3 uM using dextromethorphan as substrate incubated for 5 mins followed by NADPH addition measured after 30 mins by LC-MS/MS analysis relative to control. As to conditions: probe dextromethorphan, read-out: Activity.
For data set [11], the target named is T1, CYP2B6. Briefly: Inhibition of CYP2B6 in human liver microsomes assessed as enzyme-mediated metabolite formation at 0.3 uM using bupropion as substrate incubated for 5 mins followed by NADPH addition measured after 30 mins by LC-MS/MS analysis relative to control. As to conditions: probe bupropion, read-out: Activity.

SMILES strings stand for the structures.

T4 sequence (P33261 whole entry): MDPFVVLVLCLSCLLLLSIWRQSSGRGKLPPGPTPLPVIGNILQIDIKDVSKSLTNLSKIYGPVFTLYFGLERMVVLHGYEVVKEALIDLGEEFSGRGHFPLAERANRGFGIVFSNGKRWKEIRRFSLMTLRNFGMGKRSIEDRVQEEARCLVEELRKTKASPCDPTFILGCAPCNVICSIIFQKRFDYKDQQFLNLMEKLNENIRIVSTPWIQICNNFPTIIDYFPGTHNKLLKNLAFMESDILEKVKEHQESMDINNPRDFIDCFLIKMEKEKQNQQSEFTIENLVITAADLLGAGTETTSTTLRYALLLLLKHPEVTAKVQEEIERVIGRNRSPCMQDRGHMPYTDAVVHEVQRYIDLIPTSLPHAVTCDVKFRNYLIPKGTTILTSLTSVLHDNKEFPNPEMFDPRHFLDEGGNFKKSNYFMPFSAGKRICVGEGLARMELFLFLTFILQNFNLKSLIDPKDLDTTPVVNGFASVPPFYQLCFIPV
T6 sequence (P10635 whole entry): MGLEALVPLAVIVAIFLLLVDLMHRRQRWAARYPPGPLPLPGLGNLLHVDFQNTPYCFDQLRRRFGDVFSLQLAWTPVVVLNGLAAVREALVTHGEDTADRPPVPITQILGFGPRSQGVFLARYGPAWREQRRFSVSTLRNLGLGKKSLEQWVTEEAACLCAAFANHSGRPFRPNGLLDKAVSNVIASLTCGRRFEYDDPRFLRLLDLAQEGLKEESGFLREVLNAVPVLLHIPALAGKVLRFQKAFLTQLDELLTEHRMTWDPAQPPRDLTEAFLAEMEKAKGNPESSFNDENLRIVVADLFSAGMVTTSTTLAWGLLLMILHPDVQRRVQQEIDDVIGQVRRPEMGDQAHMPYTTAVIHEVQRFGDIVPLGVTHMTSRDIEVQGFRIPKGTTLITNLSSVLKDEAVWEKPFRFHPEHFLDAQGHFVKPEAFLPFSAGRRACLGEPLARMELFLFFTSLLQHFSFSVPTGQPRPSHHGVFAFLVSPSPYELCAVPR
T5 sequence (P08684 whole entry): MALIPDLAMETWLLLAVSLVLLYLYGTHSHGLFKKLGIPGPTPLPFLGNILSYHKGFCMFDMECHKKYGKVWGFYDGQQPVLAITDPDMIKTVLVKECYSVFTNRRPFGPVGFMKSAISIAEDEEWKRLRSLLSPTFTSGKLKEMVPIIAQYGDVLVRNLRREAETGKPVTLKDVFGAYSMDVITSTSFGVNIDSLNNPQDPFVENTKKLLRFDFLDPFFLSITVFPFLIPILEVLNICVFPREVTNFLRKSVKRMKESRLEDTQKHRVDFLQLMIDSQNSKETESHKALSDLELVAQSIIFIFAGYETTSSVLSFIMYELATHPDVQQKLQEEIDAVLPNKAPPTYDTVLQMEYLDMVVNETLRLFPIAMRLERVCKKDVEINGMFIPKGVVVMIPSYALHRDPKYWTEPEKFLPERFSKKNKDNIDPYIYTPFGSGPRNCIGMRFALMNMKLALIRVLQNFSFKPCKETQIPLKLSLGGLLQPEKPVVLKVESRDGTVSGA

`CCCCCCCC(=O)CCc1ccc(O)c(OC)c1`: the activity at 0.5 h, 30 µM came out at 37% on CYP2B6 [1], 35.5% on CYP1A2 and 97.6% at CYP3A4 [5]. Moreover, the activity at 0.5 h, 3 µM is 58.7% on CYP2C8, 77.3% at CYP2B6 [2] and 78.6% on CYP2C19 [3]. The activity at 0.5 h, 0.3 µM turned out to be 81.3% at CYP2B6 [4], 85.8% at CYP2C19 [6], 76% on CYP2D6 [10] and 68.8% at CYP2B6 [11]. Also, the activity at 0.5 h, 1 µM at CYP3A4 [7] worked out at 88.5%; at CYP2C19 [8], 88.4%; on CYP2D6 [9] it was 92.2%.

(Values after ChEMBL document CHEMBL4007467, “Effects of 6-paradol, an unsaturated ketone from gingers, on cytochrome P450-mediated drug metabolism” (Bioorg Med Chem Lett, 2017).)
